Test results reported in ChEMBL document CHEMBL1201862, “PubChem BioAssay data set” (2004).
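Step 1: Grow cells in 96-well plates. Step 2: Expose to compound for 48 hours at 5 concentrations. Step 3: Interpolate endpoints linearly; if unreached, use highest concentration. The concentration for 50% growth inhibition is given as GI50.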 Active and inactive are the calls of the source. Rule as the data show it: active = GI50 up to about 1.1 µM and inactive = higher.

Experiments:
Assay in all cases: DTP human tumour cell line panel, 48 h
HL-60 = system: HL-60
T47D = system: T47D
SK-MEL-2 = system: SK-MEL-2
SN12C = system: SN12C
NCI-H460 = system: NCI-H460
IGROV-1 = system: IGROV-1
DU-145 = system: DU-145
HCC 2998 = system: HCC 2998
SF-539 = system: SF-539
OVCAR-5 = system: OVCAR-5
HCT-116 = system: HCT-116
UACC-62 = system: UACC-62
HT-29 = system: HT-29
CCRF-CEM = system: CCRF-CEM
K562 = system: K562
SF-268 = system: SF-268
NCI-H522 = system: NCI-H522
SR = system: SR
ACHN = system: ACHN

Measured: GI50

C=C(C)c1cc(C(C)(C)C)cc(C(=C)C)c1S(C)(=O)=O
inactive: HL-60 > 100 µM | T47D 10.7 µM | SK-MEL-2 > 100 µM | SN12C > 100 µM | NCI-H460 > 100 µM | IGROV-1 > 100 µM | DU-145 > 100 µM | HCC 2998 > 100 µM | SF-539 > 100 µM | OVCAR-5 > 100 µM | HCT-116 > 100 µM | UACC-62 > 100 µM | HT-29 > 100 µM | CCRF-CEM > 100 µM | K562 > 100 µM | SF-268 > 100 µM | NCI-H522 > 100 µM | SR > 100 µM | ACHN > 100 µM

CC(NC1=NCCO1)c1ccco1 (centres undefined)
inactive: HL-60 > 100 µM | T47D > 100 µM | SK-MEL-2 60.4 µM | SN12C > 100 µM | NCI-H460 > 100 µM | IGROV-1 > 100 µM | DU-145 > 100 µM | HCC 2998 > 100 µM | SF-539 > 100 µM | OVCAR-5 > 100 µM | HCT-116 > 100 µM | UACC-62 > 100 µM | HT-29 93.8 µM | CCRF-CEM > 100 µM | K562 > 100 µM | SF-268 > 100 µM | NCI-H522 > 100 µM | SR 75.9 µM | ACHN > 100 µM

CCCCCCOc1ccc(C(=O)N(C)O)cc1
inactive: HL-60 4.01 µM | T47D 23.6 µM | SK-MEL-2 32.4 µM | SN12C 11.9 µM | NCI-H460 6.12 µM | IGROV-1 11.5 µM | DU-145 16.5 µM | HCC 2998 17.7 µM | SF-539 15 µM | OVCAR-5 67.3 µM | HCT-116 14.9 µM | UACC-62 16.1 µM | HT-29 10.9 µM | CCRF-CEM 1.85 µM | K562 8.83 µM | SF-268 11.5 µM | NCI-H522 9.86 µM | SR 6.35 µM | ACHN 6.01 µM

CC(C)(C)c1cc(C(=O)/C=C/C=C/c2ccccc2)cc(C(C)(C)C)c1O
inactive: HL-60 1.55 µM | T47D 28.9 µM | SK-MEL-2 11.7 µM | SN12C 27.4 µM | NCI-H460 15.4 µM | IGROV-1 33.3 µM | DU-145 29.4 µM | HCC 2998 14 µM | SF-539 14.5 µM | OVCAR-5 36.7 µM | HCT-116 18.2 µM | UACC-62 18.1 µM | HT-29 22.9 µM | CCRF-CEM 3.15 µM | K562 7.31 µM | SF-268 25.2 µM | NCI-H522 10.3 µM | SR 3.24 µM | ACHN 29.2 µM

CC(=O)NNc1nc(C)c(C(/C=C/c2ccc3c(c2)OCO3)=N/Nc2ccccc2)s1
inactive: HL-60 > 100 µM | T47D > 100 µM | SK-MEL-2 > 100 µM | SN12C > 100 µM | NCI-H460 > 100 µM | IGROV-1 > 100 µM | DU-145 > 100 µM | HCC 2998 > 100 µM | SF-539 > 100 µM | OVCAR-5 > 100 µM | HCT-116 > 100 µM | UACC-62 > 100 µM | HT-29 > 100 µM | CCRF-CEM > 100 µM | K562 > 100 µM | SF-268 > 100 µM | NCI-H522 > 100 µM | SR > 100 µM | ACHN > 100 µM

C=C1C(=O)OC2C1C(OC(=O)/C(C)=C/C)CC(O)(CCl)C1C(OC(C)=O)C=C(C)C21O (centres undefined)
inactive: HL-60 1.89 µM | T47D 18 µM | SK-MEL-2 15.9 µM | SN12C 16.2 µM | NCI-H460 20.8 µM | IGROV-1 14.4 µM | DU-145 15.2 µM | HCC 2998 16.3 µM | SF-539 18.2 µM | OVCAR-5 17.3 µM | HCT-116 7.5 µM | UACC-62 14.3 µM | HT-29 16.3 µM | CCRF-CEM 2.79 µM | K562 7.8 µM | SF-268 16 µM | NCI-H522 1.99 µM | SR 3.8 µM | ACHN 8.97 µM
